Source: PubChem BioAssay AID1259427 (Fisher Drug Discovery Resource Center, 2018)
Active and inactive are the calls of the source.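 Rule for the calls: active = EC50 at or below a set limit, with no effect in the paired counter-screen assay; inactive = the rest.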

Molecular target: Aedes aegypti neuropeptide Y-like receptor 7 (NPYLR7)
Test: NPYLR7 activation potency in cells – cell-based, Aedes aegypti, hit validation, mosquito biting behavior, confirmation (AID 1259427);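 note: potency of agonists that activate the receptor and raise the calcium signal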
Details: HEK293T NPYLR7/Galpha15/GCaMP6s, calcium fluorescence

| Compound | EC50 |
| --- | --- |
| CCC1CN(C(=O)c2cc(C(C)C)on2)CCC(=O)N1Cc1ccccc1 (configuration not stated) | > 20 µM (inactive) |
| COc1ccc(CC2c3cc(OC)c(OC)cc3CC[N+]2(C)CCC(=O)OCCCCCOC(=O)CC[N+]2(C)CCc3cc(OC)c(OC)cc3C2Cc2ccc(OC)c(OC)c2)cc1OC (configuration not stated) | 3.55 µM |
| COc1ccc(-n2ccnc2-c2nc(-c3cccs3)oc2C)cn1 | > 20 µM (inactive) |
| COc1ccc(-n2ccnc2-c2ccc(C#CC(C)(C)O)cc2)cn1 | > 20 µM (inactive) |
| Cc1oc(-c2cccc(NC(=O)CC(C)C)c2)nc1CNC(=O)Cc1cc(F)cc(F)c1 | > 20 µM (inactive) |
| Cc1ccc2nc(Cn3cnc4c(Cl)cc(Cl)cc4c3=O)cc(=O)n2c1 | > 20 µM (inactive) |
| CN1C(=S)N(C2CCCCC2)C(=O)/C1=C\c1ccc2c(c1)OCO2 | > 20 µM (inactive) |
| COc1cc(C=C2C=c3c(O)cccc3=C2O)cc(Cl)c1O | inactive |
| CCCN1CCc2c(sc3c2c(NC(CC)CO)nc2nnnn23)C1 (configuration not stated) | > 20 µM (inactive) |
| CCOc1cc(/C=C2\SC(=S)N(NC(=O)c3ccccc3O)C2=O)ccc1O | > 20 µM (inactive) |
| CC(=O)Nc1nc(COC(=O)c2[nH]c(C)c(C(=O)OC(C)C)c2C)cs1 | > 20 µM (inactive) |
| O=C(CNCc1ccccc1)N1CC(=O)N(c2cccc(Cl)c2)C1 | > 20 µM (inactive) |
| COc1ccccc1N=c1oc2cc(O)ccc2cc1-c1nc2ccccc2[nH]1 | inactive |
| CCN1CC=C2C(C#N)C(=N)C(C#N)(C#N)C(c3cccs3)C2C1 (configuration not stated) | > 20 µM (inactive) |
| CC(C)COCC(O)CN(Cc1cccn1C)CC1CCCO1 (configuration not stated) | > 20 µM (inactive) |
| COc1cc(/C=C2\SC(=S)N(c3cccc(C(=O)O)c3)C2=O)ccc1O | > 20 µM (inactive) |
| CN(C)c1ccc(/C=C2/SC(=S)N(CC(=O)O)C2=O)cc1Br | inactive |
| CC(C)CN1C(=O)C(=Cc2c(N3CCN(CCO)CC3)nc3ccccn3c2=O)SC1=S | > 20 µM (inactive) |
| CCN(CC)c1ccc(/C=C2\SC(=S)N(CC(=O)O)C2=O)c(O)c1 | inactive |
| CC1(C)CC(=O)C2C(=Nc3[nH]c(=S)[nH]c(=O)c3C2c2ccc3c(c2)OCO3)C1 (configuration not stated) | > 20 µM (inactive) |
| COc1ccc(OC)c(CCNc2nc3cnc(-c4ccc(Cl)cc4)cc3n2C)c1 | 19.5 µM |
| Nc1ccc2c3c(cccc13)C(=O)NC2=O | inactive |
| COc1ccc(C(=O)N(Cc2ccccc2)C2CCC(NC(=O)C3CCN(C(=O)c4ccccc4Cl)CC3)CC2)cc1 (configuration not stated) | 18 µM |
| O=C(CSc1cn(CC(=O)N2CCCCCC2)c2ccccc12)NC1CCCC1 | > 20 µM (inactive) |
| COCCCN(Cc1ccc(C(C)(C)C)cc1)Cc1cccn1Cc1cccc(C)c1 | > 20 µM (inactive) |

| Compound | EC50 |
| --- | --- |
| CSCCC(C(=O)O)N1C(=O)/C(=C/c2ccc(O)cc2)SC1=S (configuration not stated) | > 20 µM (inactive) |
| O=C1/C(=C/c2cc3ccccc3o2)Oc2c1ccc(O)c2CN1CCN(CCO)CC1 | inactive |
| COCCCNCc1c(-c2ccc(F)cc2)noc1N1CCOCC1 | > 20 µM (inactive) |
| Nc1nc(Cl)nc2c1ncn2[C@@H]1O[C@H](CO)[C@@H](O)[C@H]1O | inactive |
| O=C1OC(c2ccc(Cl)c([N+](=O)[O-])c2)=N/C1=C\c1cc2cc3c4c(c2oc1=O)CCCN4CCC3 | < 0.039 µM (inactive) |
| COc1cc(OC)c(C2=NOC3(CC(=O)N(c4cccc(Cl)c4)C3=O)C2)cc1OC (configuration not stated) | > 20 µM (inactive) |
| C[C@@H](NC(=O)CN1Cc2ccc(N3CCOCC3)nc2C1=O)c1ccccc1 | > 20 µM (inactive) |
| N#C/C(=C/c1ccc(N2CCCCC2)o1)c1cccc(F)c1 | > 20 µM (inactive) |
| COc1ccc(CCN2COc3ccc4c(c3C2)O/C(=C\c2cccnc2)C4=O)cc1 | > 20 µM (inactive) |
| Cc1[nH]c(/C=C2\C(=O)Nc3ccccc32)c(C)c1CCC(=O)O | < 0.039 µM (inactive) |
| N#CC(=Cc1c(F)c(F)c(F)c(F)c1F)c1ccccn1 | > 20 µM (inactive) |
| O=C1c2ccccc2C(=O)C1c1ccnc2ccccc12 | > 20 µM (inactive) |
| CCOc1cc(/C=C2/Oc3cc(O)ccc3C2=O)cc(Cl)c1OCC(=O)N(C)C | 16.6 µM |
| COc1ccc(C2=NN(C(=O)CN3CCOCC3)C(c3nc4ccccc4[nH]3)C2)cc1 (configuration not stated) | > 20 µM (inactive) |
| CCCC1CCC(C(=O)Nc2nnc(SCC)s2)CC1 (configuration not stated) | > 20 µM (inactive) |
| N#CC(C#N)=C1C=C2C=C(N3CCCCCC3)CCC2CC1 (configuration not stated) | < 0.039 µM (inactive) |
| O=C(O)CCN1C(=O)/C(=C/c2ccc(O)cc2)SC1=S | inactive |
| COc1ccccc1Oc1nc2ccccn2c(=O)c1/C=C(\C#N)c1nc2ccccc2s1 | > 20 µM (inactive) |
| COc1ccc2nc(C=Cc3cc(Br)c(O)c(OC)c3)sc2c1 | > 20 µM (inactive) |
| N#CC(C#N)=C1C=C2C=C(N3CCCCC3)CCC2CC1 (configuration not stated) | < 0.039 µM (inactive) |
| O=[N+]([O-])c1c[n+]([O-])n(-c2cccc(Cl)c2)n1 | > 20 µM (inactive) |
| COc1ccc(NC[C@@H]2C=C(C)[C@H](Cc3nnc(C)o3)C[C@H]2C(C)C)cn1 | > 20 µM (inactive) |
| O=C1OC2(c3cc(Br)c(O)cc3Oc3c2cc(Br)c(O)[c]3[Hg])c2ccccc21 (configuration not stated) | < 0.039 µM (inactive) |
| C[n+]1c2cc(N)ccc2cc2ccc(N)cc21 | < 0.039 µM (inactive) |
| CCCCN(CC(=O)Nc1c(-c2ccccc2)c(C)nn1-c1ccccc1C)S(=O)(=O)c1ccc(F)cc1 | > 20 µM (inactive) |

| Compound | EC50 |
| --- | --- |
| CC(=O)OC(C)C[N+](C)(C)C (configuration not stated) | > 20 µM (inactive) |
| N#C/C(=C\c1ccc(O)c(O)c1)C(=O)NCc1ccccc1 | > 20 µM (inactive) |
| CCc1nc(N=C(N)N)nc2cc(C)ccc12 | 7.66 µM |
| Cc1ccc(Nc2nc(Nc3cccc(F)c3)nc3nccnc23)c(C)c1 | > 20 µM (inactive) |
| COc1ccc(CN2CCN(Cc3cccn3-c3ncccn3)CC2CCO)c(C)c1C (configuration not stated) | > 20 µM (inactive) |
| O=C(O)CCn1c(O)c(C=C2C=Nc3ccccc32)sc1=S | > 20 µM (inactive) |
| Cc1csc(-c2cc3ccc(O)c(CN4CCN(CCO)CC4)c3oc2=O)n1 | < 0.039 µM (inactive) |
| COc1cc(/C=C/c2nc3ccccc3o2)cc(Cl)c1O | inactive |
| COC(=O)c1cnc(/C=C/c2cc(C)c(O)c(C)c2)s1 | > 20 µM (inactive) |
| CCCc1[nH]n(-c2ccc(Cl)cc2)c(=O)c1/C=C1\NC(=O)N(Cc2ccc(C)cc2)C1=O | > 20 µM (inactive) |
| N#Cc1cccc(C(=O)N2CCN(C(c3ccccc3)c3ccc(Br)cc3)CC2)c1 (configuration not stated) | > 20 µM (inactive) |
| COc1ccc(C(=O)C=Cc2cc(OC)c(O)c(OC)c2)cc1F | > 20 µM (inactive) |
| CCN1/C(=C/C2=CC(=O)CC(C)(C)C2)Sc2ccccc21 | inactive |
| CCN1CCc2c(sc(NC(=O)c3ccccc3)c2-c2nc3ccccc3s2)C1 | > 20 µM (inactive) |
| FC(F)(F)c1cc(-c2cccs2)nc2ncnn12 | > 20 µM (inactive) |
| O=C(NCCSc1ccc(Cl)cc1)c1ccc2c(=O)n3c(nc2c1)CCC3 | > 20 µM (inactive) |
| C=CCN1C(=O)/C(=C\c2ccc(O)cc2)SC1=S | > 20 µM (inactive) |
| CCc1nn(C(C)C(=O)NC(C)CCc2ccco2)c(=O)c2cc3occc3n12 (configuration not stated) | inactive |
| COc1cc(C=C2N=C(c3ccc4c(c3)OCO4)OC2=O)cc2c1OCCO2 | > 20 µM (inactive) |
| Cc1ccc(C2=NN(C(=O)CN3CCN(C)CC3)C(c3ccccc3Cl)C2)cc1 (configuration not stated) | > 20 µM (inactive) |
| O=C(c1cnn(-c2ccccc2)n1)N1CCCC(COCc2ccccc2)C1 (configuration not stated) | inactive |
| COc1ccccc1CCNC(=O)c1ccc(Cn2c(C)nc3ccccc32)o1 | > 20 µM (inactive) |
| Cc1cc(C)c2cc3c(cc2n1)CCN3CC(O)CO (configuration not stated) | inactive |
| O=C(O)CN1C(=O)/C(=C\c2cc([N+](=O)[O-])cc(Br)c2O)SC1=S | inactive |
| COc1ccccc1OCCCOc1ccc(Br)cc1Cl | > 20 µM (inactive) |

| Compound | EC50 |
| --- | --- |
| CC(C)OC(=O)C(C(=O)C(F)(F)F)c1cc(NS(=O)(=O)c2ccc(Cl)cc2)ccc1O (configuration not stated) | > 20 µM (inactive) |
| CCOC(=O)c1ccc(N=c2oc3cc(O)ccc3cc2-c2nc3ccccc3[nH]2)cc1 | inactive |
| NC(=NCCCCCCN=C(N)N=C(N)Nc1ccc(Cl)cc1)N=C(N)Nc1ccc(Cl)cc1 | 2.66 µM |
| CCN1CCc2c(sc(NC(=O)COc3ccccc3)c2-c2nc3ccccc3s2)C1 | > 20 µM (inactive) |
| CC(=NNc1ncnc2sc(C)c(C)c12)c1ccccn1 | inactive |
| CCOc1cc2c(cc1C=C(C#N)C#N)OC(C)C2 (configuration not stated) | > 20 µM (inactive) |
| CCOC(=O)N1CCN(c2ccc(/C=C(\C#N)c3nc4ccccc4n3C)o2)CC1 | inactive |
| CC1C(=O)c2cccc3c(=O)n(-c4ccccc4)c(O)c(c23)C1=O (configuration not stated) | 5.77 µM |
| COc1ccc(OC)c(CCNc2nc3cnc(-c4cc(OC)c(OC)c(OC)c4)cc3n2C)c1 | 12.7 µM |
| O=C1c2cccc3c(NCC(O)CCl)ccc(c23)C(=O)N1c1ccccc1 (configuration not stated) | < 0.039 µM (inactive) |
| CC1(C)OC2OC(C(O)c3cc(O)c4c(c3O)C(=O)c3ccccc3C4=O)C(C)(O)C2O1 (configuration not stated) | inactive |
| COc1ccc(Cl)cc1Nc1nnc(-c2cc3c(ccc4ccccc43)oc2=O)s1 | > 20 µM (inactive) |
| N#CC1C(=N)Oc2cc(N)ccc2C1c1c(Cl)cccc1Cl (configuration not stated) | > 20 µM (inactive) |
| N#CC(C#N)=C1C=C2C=C(N3CCc4ccccc4C3)CCC2CC1 (configuration not stated) | > 20 µM (inactive) |
| CCC(CO)[n+]1c(C)cc(C=C2Sc3ccccc3N2Cc2ccccc2)cc1C (configuration not stated) | 9.8 µM |
| CCC(C)n1cc(/C=C2/C(=O)NC(=O)N(c3ccc4c(c3)OCO4)C2=O)c2ccccc21 (configuration not stated) | > 20 µM (inactive) |
| CCN1CCN(C(=O)c2ccc(Cn3ccsc3=NC(=O)c3ccc(OC)c(OC)c3)o2)CC1 | 14.3 µM |
| CCOCCCN1C(=O)C(=Cc2ccccc2O)NC1=S | inactive |
| COCCOc1ccc(NC(=O)N(C)C(C)C2(C)CC2)cn1 (configuration not stated) | > 20 µM (inactive) |
| CN1CCc2c(sc(NC(=O)Cc3ccccc3)c2-c2nc3ccccc3s2)C1 | > 20 µM (inactive) |
| CCOC(=O)C1=C(C)NC(C)=C(C(=O)OCC)C1c1cc(Cl)ccc1OC(F)F | > 20 µM (inactive) |
| COc1cc(OC)c(OC)cc1/C=C1/SC(=S)N(CC(=O)O)C1=O | inactive |
